Assay results taken from ChEMBL document CHEMBL1130408, “Repromicin derivatives with potent antibacterial activity against Pasteurella multocida” (1997).
≈ marks a conversion by molar mass, not a printed value.

Legend:
Assay type in all cases: functional
[1] = organism: Mus musculus; assay: Protected dose at which the test compound protects 50% of challenged mice from death owing to the Pasteurella multocida infection; details: read-out: PD50
[2] = test system: Pasteurella multocida; assay: Minimum inhibitory concentration required to inhibit Pasteurella multocida 59A006 in vitro
[3] = organism: Mus musculus; assay: Protected dose which protects 50% of challenged mice from death owing to the Pasteurella multocida (59A006) infection; details: read-out: PD50

SMILES | ED50 [1] [mg/kg] | MIC [2] [µg/mL] | ED50 [3] [mg/kg]
CC[C@H]1OC(=O)C[C@@H](O)[C@H](C)[C@@H](O[C@@H]2O[C@H](C)[C@@H](O)[C@@H](N(C)C)[C@H]2O)[C@@H](CC=O)C[C@@H](C)C(=O)/C=C/C(C)=C/[C@@H]1CO[C@@H]1O[C@H](C)[C@@H](O)[C@@H](OC)[C@H]1OC | 66 | 3.13 (≈ 4.05 µM) | 
CC[C@H]1OC(=O)[C@H](C)[C@@H](O[C@H]2C[C@@](C)(OC)[C@@H](O)[C@H](C)O2)[C@H](C)[C@@H](O[C@@H]2O[C@H](C)C[C@H](N(C)C)[C@H]2O)[C@](C)(O)C[C@@H](C)CN(C)[C@H](C)[C@@H](O)[C@]1(C)O [AZITHROMYCIN] | 16 | 0.05 (≈ 0.0668 µM) | 
CO[C@@H]1[C@@H](O[C@@H]2O[C@H](C)[C@@H](O[C@H]3C[C@@](C)(O)[C@@H](OC(=O)CC(C)C)[C@H](C)O3)[C@H](N(C)C)[C@H]2O)[C@@H](CC=O)C[C@@H](C)C(=O)/C=C/[C@@H]2O[C@H]2C[C@@H](C)OC(=O)C[C@H]1OC(C)=O [CARBOMYCIN A] |  | 1.56 (≈ 1.85 µM) | > 150
CC[C@H]1OC(=O)C[C@@H](O)[C@H](C)[C@@H](O[C@@H]2O[C@H](C)C[C@H](N(C)C)[C@H]2O)[C@@H](CC=O)C[C@@H](C)C(=O)/C=C/[C@]2(C)O[C@H]2[C@@H]1C [ROSARAMICIN] |  | 0.2 (≈ 0.344 µM) | 68
CC[C@H]1OC(=O)C[C@@H](O)[C@H](C)[C@@H](O[C@@H]2O[C@H](C)[C@@H](O)[C@H](N(C)C)[C@H]2O)[C@@H](CCN2C[C@H](C)C[C@H](C)C2)C[C@@H](C)C(=O)/C=C/C(C)=C/[C@@H]1CO[C@@H]1O[C@H](C)[C@@H](O)[C@@H](OC)[C@H]1OC [TILMICOSIN] | 99 | 1.56 (≈ 1.79 µM) | 
CC[C@H]1OC(=O)C[C@@H](O)[C@H](C)[C@@H](O[C@@H]2O[C@H](C)[C@@H](O[C@H]3C[C@@](C)(O)[C@@H](O)[C@H](C)O3)[C@H](N(C)C)[C@H]2O)[C@@H](CC=O)C[C@@H](C)C(=O)/C=C/C(C)=C/[C@@H]1CO[C@@H]1O[C@H](C)[C@@H](O)[C@@H](OC)[C@H]1OC [TYLOSIN] |  | 25 (≈ 27.3 µM) | 86
